In patent US7662778B2, “Histone deacetylase inhibitor and process for producing the same” (Riken, priority 2003, dated 2010):
Read-outs that look alike come from different tables or passages of the source. Where a SMILES comes first, the peptide text is derived from it. [ ]: non-standard residue; d: D form. The star is where a group is joined. hLys(Nζ-OH,Nζ-For) = N[C@@H](CCCCCN(O)C=O)C(=O)O; Asu = N[C@@H](CCCCCC(=O)O)C(=O)O; NH(2-NH2-phenyl) = Nc1ccccc1N*; dPip = O=C(O)[C@H]1CCCCN1; X1 = Oc1ccccc1N*; X2 = Nc1ccccc1O*; X3 = Sc1ccccc1N*

Key:
mouse HDAC6 = biological target: T1, mouse HDAC6 (Mus musculus, UniProt Q9Z2V5); experiment: HDAC inhibitory activity in vitro (coumarin-labeled acetylated histone peptide), HDAC6; format: biochemical
T1 construct: HA; made in house; host or cells: 293T cells, transient transfection; anti-HA immunoprecipitation and HA peptide elution
T1 sequence (Q9Z2V5 1-1149): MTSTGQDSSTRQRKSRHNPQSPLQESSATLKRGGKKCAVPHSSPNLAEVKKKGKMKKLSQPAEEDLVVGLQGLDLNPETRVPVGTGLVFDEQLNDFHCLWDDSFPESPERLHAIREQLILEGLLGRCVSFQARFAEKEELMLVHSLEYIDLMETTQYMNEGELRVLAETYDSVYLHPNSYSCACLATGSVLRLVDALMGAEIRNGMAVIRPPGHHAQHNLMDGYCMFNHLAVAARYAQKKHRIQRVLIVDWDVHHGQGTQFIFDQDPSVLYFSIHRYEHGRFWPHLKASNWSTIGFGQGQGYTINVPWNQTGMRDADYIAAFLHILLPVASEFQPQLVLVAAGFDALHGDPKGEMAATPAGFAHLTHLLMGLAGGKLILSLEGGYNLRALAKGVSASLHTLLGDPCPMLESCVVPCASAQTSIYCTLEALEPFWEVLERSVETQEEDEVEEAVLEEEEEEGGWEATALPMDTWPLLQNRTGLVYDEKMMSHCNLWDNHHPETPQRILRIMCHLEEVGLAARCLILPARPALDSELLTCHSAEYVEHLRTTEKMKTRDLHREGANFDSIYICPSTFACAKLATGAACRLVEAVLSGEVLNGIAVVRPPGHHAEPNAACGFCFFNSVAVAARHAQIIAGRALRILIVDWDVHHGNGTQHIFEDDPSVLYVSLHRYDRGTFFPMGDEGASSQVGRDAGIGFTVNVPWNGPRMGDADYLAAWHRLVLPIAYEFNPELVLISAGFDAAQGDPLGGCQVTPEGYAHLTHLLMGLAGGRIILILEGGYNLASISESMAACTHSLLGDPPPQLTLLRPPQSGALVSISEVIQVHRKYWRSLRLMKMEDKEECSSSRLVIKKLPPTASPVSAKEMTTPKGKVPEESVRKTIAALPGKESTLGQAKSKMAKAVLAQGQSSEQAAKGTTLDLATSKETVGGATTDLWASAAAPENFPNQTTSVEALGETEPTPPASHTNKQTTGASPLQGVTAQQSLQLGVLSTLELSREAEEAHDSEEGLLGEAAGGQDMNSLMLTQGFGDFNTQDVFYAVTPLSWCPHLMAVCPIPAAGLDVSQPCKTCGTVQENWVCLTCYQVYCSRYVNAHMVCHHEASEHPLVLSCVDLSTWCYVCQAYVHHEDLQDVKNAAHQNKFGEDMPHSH

human HDAC4 = biological target: T2, human HDAC4 (Homo sapiens, UniProt P56524); experiment: HDAC inhibitory activity in vitro (coumarin-labeled acetylated histone peptide), HDAC4; format: biochemical
T2 construct: FLAG; made in house; host or cells: 293T cells, transient transfection; anti-FLAG immunoprecipitation and FLAG peptide elution
T2 sequence (P56524 whole entry): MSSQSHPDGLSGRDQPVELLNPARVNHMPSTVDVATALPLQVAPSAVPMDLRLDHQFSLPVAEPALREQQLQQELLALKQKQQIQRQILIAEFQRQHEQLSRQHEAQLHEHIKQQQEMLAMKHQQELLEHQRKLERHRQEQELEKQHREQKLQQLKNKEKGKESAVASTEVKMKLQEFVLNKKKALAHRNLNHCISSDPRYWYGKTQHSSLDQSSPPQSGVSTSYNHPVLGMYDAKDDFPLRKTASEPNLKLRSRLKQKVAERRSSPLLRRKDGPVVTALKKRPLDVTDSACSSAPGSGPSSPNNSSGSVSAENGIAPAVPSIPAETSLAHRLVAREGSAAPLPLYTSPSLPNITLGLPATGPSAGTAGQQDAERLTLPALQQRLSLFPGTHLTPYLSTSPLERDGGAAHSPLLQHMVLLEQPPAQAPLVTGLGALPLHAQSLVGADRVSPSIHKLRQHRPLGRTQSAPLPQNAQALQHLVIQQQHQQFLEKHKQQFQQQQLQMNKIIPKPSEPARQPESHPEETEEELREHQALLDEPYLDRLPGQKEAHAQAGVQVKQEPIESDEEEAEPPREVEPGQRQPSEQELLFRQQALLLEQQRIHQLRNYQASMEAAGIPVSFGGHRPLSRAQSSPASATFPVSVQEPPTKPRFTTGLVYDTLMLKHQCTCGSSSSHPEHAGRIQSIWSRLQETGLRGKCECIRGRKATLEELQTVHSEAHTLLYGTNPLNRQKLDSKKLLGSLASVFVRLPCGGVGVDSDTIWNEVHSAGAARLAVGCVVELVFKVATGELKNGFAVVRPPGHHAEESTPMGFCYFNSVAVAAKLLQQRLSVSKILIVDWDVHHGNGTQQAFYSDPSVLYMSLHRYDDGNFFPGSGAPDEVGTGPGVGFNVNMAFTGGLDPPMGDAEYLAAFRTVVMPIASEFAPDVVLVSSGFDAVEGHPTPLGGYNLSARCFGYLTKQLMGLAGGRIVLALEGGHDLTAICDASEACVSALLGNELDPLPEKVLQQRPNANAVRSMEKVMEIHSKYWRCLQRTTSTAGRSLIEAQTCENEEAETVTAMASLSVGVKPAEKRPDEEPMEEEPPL

[1] = amide bond, 12-membered ring, DMF
[2] = test system: human wild-type p21 promoter; experiment: p21 promoter-inducing activity (luciferase) in MFLL-9 cells; format: cell-based
Description: The HDAC inhibitory activity in vivo was measured using p21 promoter-inducing activity as an index, as shown below. The MFLL-9 cells employed for the experiments stably maintained fusion genes of human wild-type p21 promoter and luciferase (Dr. B. Vogelstaein). Using phenol red-free DMEM medium comprising 10% FBS, cultivation was carried out in a steam-saturated incubator at 37° C. with 5% carbon dioxide. The MFLL-9 cells were plated at a density of 85,000 cells/well on a 96-well microtiter plate, each in 99 μl of the above-mentioned medium. These were then cultivated for six hours. One μl of test compound solution was added to each well, which was then cultured for another 18 hours.
The intensity of luminescence caused by the product of the enzyme reaction for intracellular luciferase expression was measured using Luc Lite (Packard BioScience Company).
HDAC inhibitory activity in an in vivo system was measured using p21 promoter induction as index. The experimental method followed that of Example 11.

human HDAC1 = biological target: T3, human HDAC1 (Homo sapiens, UniProt Q13547); experiment: HDAC inhibitory activity in vitro (coumarin-labeled acetylated histone peptide), HDAC1; format: biochemical
T3 construct: FLAG; made in house; host or cells: 293T cells, transient transfection; anti-FLAG immunoprecipitation and FLAG peptide elution
T3 sequence (Q13547 whole entry): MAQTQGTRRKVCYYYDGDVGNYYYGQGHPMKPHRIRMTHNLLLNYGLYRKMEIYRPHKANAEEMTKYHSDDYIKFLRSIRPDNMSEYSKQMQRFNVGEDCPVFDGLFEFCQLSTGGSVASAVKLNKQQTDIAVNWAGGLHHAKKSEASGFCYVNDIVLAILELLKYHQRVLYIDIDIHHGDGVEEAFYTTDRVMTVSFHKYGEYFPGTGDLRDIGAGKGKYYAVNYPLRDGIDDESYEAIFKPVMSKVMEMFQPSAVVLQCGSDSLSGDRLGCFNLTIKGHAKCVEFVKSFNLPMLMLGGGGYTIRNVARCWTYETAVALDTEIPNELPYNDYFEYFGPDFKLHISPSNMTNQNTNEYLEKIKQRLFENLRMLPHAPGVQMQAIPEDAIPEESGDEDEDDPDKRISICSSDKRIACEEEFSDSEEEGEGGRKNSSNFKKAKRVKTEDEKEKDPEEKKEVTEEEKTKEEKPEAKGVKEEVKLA

[3] = Table 1, 37° C., 30 minutes, read-out: IC50 (μM) HDAC6
[4] = Table 1, 37° C., 30 minutes, read-out: IC50 (μM) HDAC4
[5] = Table 3, method of Example 11, 50% of the maximum activity observed in TSA
[6] = Table 3, method of Example 11, read-out: IC50(μM) HDAC6
[7] = Table 3, method of Example 11, read-out: IC50(μM) HDAC1
[8] = Table 3, method of Example 11, read-out: IC50(μM) HDAC4
[9] = Table 1, MFLL-9 cells, 18 hours, concentration corresponding to 50% of the maximum active value for TSA
[10] = Table 1, 37° C., 30 minutes, read-out: IC50 (μM) HDAC1

CC[C@H](C)[C@@H]1NC(=O)[C@@H](Cc2ccc(OC)cc2)NC(=O)[C@H](CCCCCN(O)C=O)NC(=O)[C@@H]2CCCN2C1=O [N(OH)COH Cyclo(X-y(Me)-I-P), n = 5] (cyclo([hLys(Nζ-OH,Nζ-For)][dY](Me)IP))
IC50 (mouse HDAC6; [3]): 0.029 µM
IC50 (human HDAC4; [4]): 0.09 µM

CC[C@H](C)[C@@H]1NC(=O)[C@@H](Cc2ccc(OC)cc2)NC(=O)[C@H](CCCCCN(O)C=O)NC(=O)[C@H]2CCCN2C1=O [N(OH)COH Cyclo(X-y(Me)-I-p), n = 5] (cyclo([hLys(Nζ-OH,Nζ-For)][dY](Me)I[dP]))
IC50 (mouse HDAC6; [3]): 0.78 µM
IC50 (human HDAC4; [4]): 0.074 µM

CC[C@H](C)[C@@H]1NC(=O)[C@@H](Cc2ccc(OC)cc2)NC(=O)[C@H](CCCCOn2nnc3cccnc32)NC(=O)[C@H]2CCCN2C1=O [cyclo(-L-Ab6-D-Tyr(Me)-L-Ile-D-Pro-)]
ring closure, isolated yield ([1]; from H-dTyr(Me)-Ile-dPro-Ab6-OH, HBTU/HOBt/DIEA, 5.4 mM, 2 steps): 32%

CC[C@H](C)[C@@H]1NC(=O)[C@@H](Cc2ccc(OC)cc2)NC(=O)[C@H](CCCCN(C=O)OCc2ccccc2)NC(=O)[C@@H]2CCCCN2C1=O [cyclo(-L-Lys(For, OBzl)-D-Tyr(Me)-L-Ile-L-Pip-)]
ring closure, isolated yield ([1]; from H-dTyr(Me)-Ile-Pip-Lys(For,OBzl)-OH?, HATU/DIEA, 0.4 mM, 25.0 °C): 24%

CC[C@H](C)[C@@H]1NC(=O)[C@@H](Cc2ccc(OC)cc2)NC(=O)[C@H](CCCCCC(=O)Nc2ccccc2N)NC(=O)[C@H]2CCCN2C1=O [OPD, cyclo(L-Asu(OPD)-D-Tyr(Me)-L-Ile-D-Pro)] (cyclo([Asu](NH(2-NH2-phenyl))[dY](Me)I[dP]))
EC50 [2, 5]: 30.9 µM
IC50 (mouse HDAC6; [6]): 321 µM
IC50 (human HDAC1; [7]): 4.04 µM
IC50 (human HDAC4; [8]): 15.7 µM

CC[C@H](C)[C@@H]1NC(=O)[C@@H](Cc2ccc(OC)cc2)NC(=O)[C@H](CCCCCCN(C=O)OCc2ccccc2)NC(=O)C2CCCCN2C1=O (mixture of isomers) [Cyclo(-L-A2oc(For, OBzl)-D-Tyr(Me)-L-Ile-DL-Pip-)]
ring closure, isolated yield ([1]; from H-dTyr(Me)-Ile-DL-Pip-A2oc(For,OBzl)-OH, HATU/DIEA, 1.6 mM, 25.0 °C): 21%

CC[C@H](C)[C@@H]1NC(=O)[C@@H](Cc2ccc(OC)cc2)NC(=O)[C@H](CCCCCN(O)C=O)NC(=O)[C@H]2CCCCN2C1=O [N(OH)COH Cyclo(X-y(Me)-I-pip), n = 5, cyclo(-L-Hly(For, OH)-D-Tyr(Me)-L-Ile-D-Pip-)] (cyclo(I[dPip][hLys(Nζ-OH,Nζ-For)][dY](Me)))
EC50 [2, 9]: 3.73 µM
IC50 (mouse HDAC6): 0.18 µM
IC50 (human HDAC1): 0.067 µM
IC50 (human HDAC4): 0.13 µM

CC[C@H](C)[C@@H]1NC(=O)[C@@H](Cc2ccc(OC)cc2)NC(=O)[C@H](CCCCCC(=O)OC)NC(=O)[C@H]2CCCN2C1=O [COOMe, cyclo(-L-Asu(OMe)-D-Tyr(Me)-L-Ile-D-Pro-)] (cyclo([Asu](OMe)[dY](Me)I[dP]))
EC50 [2, 9]: 3.95 µM
IC50 (mouse HDAC6; [3]): > 500 µM
IC50 (human HDAC1; [10]): 0.12 µM
IC50 (human HDAC4; [4]): 0.07 µM

cyclo(-L-Aph-D-Tyr(Me)-L-Ile-D-Pro-)
ring closure, isolated yield ([1]; HATU/DIEA, 2.7 mM, 25.0 °C, 2 steps): 11%

CC[C@H](C)[C@@H]1NC(=O)[C@@H](Cc2ccc(OC)cc2)NC(=O)[C@H](CCCCCCN(O)C=O)NC(=O)[C@@H]2CCCCN2C1=O [N(OH)COH Cyclo(X-y(Me)-I-Pip), n = 6]
IC50 (mouse HDAC6; [3]): 11.2 µM
IC50 (human HDAC1; [10]): 13.5 µM
IC50 (human HDAC4; [4]): 18.9 µM

CC[C@H](C)[C@@H]1NC(=O)[C@@H](Cc2ccc(OC)cc2)NC(=O)[C@H](CCCCCSC)NC(=O)[C@H]2CCCN2C1=O [SMe]
EC50 [2, 9]: > 100 µM

CC[C@H](C)[C@@H]1NC(=O)[C@@H](Cc2ccc(OC)cc2)NC(=O)[C@H](CCCCN(O)C=O)NC(=O)[C@H]2CCCCN2C1=O [N(OH)COH Cyclo(X-y(Me)-I-pip), n = 4]
IC50 (mouse HDAC6; [3]): 14.3 µM
IC50 (human HDAC1; [10]): 33.9 µM
IC50 (human HDAC4; [4]): 25.2 µM

CC[C@H](C)[C@@H]1NC(=O)[C@@H](Cc2ccc(OC)cc2)NC(=O)[C@H](CCCCCS(C)(=O)=O)NC(=O)[C@H]2CCCN2C1=O [SO2Me]
EC50 [2, 9]: > 100 µM

CC[C@H](C)[C@@H]1NC(=O)[C@@H](Cc2ccc(OC)cc2)NC(=O)[C@H](CCCCCC(=O)O)NC(=O)[C@H]2CCCN2C1=O [COOH, cyclo(L-Asu-D-Tyr(Me)-L-Ile-D-Pro)] (cyclo([Asu][dY](Me)I[dP]))
EC50 [2, 9]: > 100 µM
IC50 (mouse HDAC6; [3]): > 500 µM
IC50 (human HDAC1; [10]): 4.07 µM
IC50 (human HDAC4; [4]): 5.69 µM

CC[C@H](C)[C@@H]1NC(=O)[C@@H](Cc2ccc(OC)cc2)NC(=O)[C@H](CCCCN(O)C=O)NC(=O)[C@@H]2CCCCN2C1=O [N(OH)COH Cyclo(X-y(Me)-I-Pip), n = 4]
IC50 (mouse HDAC6; [3]): 8.19 µM
IC50 (human HDAC1; [10]): 23.9 µM
IC50 (human HDAC4; [4]): 17.5 µM

CC[C@H](C)[C@@H]1NC(=O)[C@@H](Cc2ccc(OC)cc2)NC(=O)[C@H](CCCCCC(=O)Nc2ccccc2O)NC(=O)[C@H]2CCCN2C1=O [OAPOH, cyclo(L-Asu(OAPOH)-D-Tyr(Me)-L-Ile-D-Pro)] (cyclo([Asu](X1)[dY](Me)I[dP]))
EC50 [2, 5]: 55.1 µM
IC50 (human HDAC1; [7]): 1.22 µM
IC50 (human HDAC4; [8]): 0.23 µM

CC[C@H](C)[C@@H]1NC(=O)[C@@H](Cc2ccc(OC)cc2)NC(=O)[C@H](CCCCCCN(O)C=O)NC(=O)[C@H]2CCCCN2C1=O [N(OH)COH Cyclo(X-y(Me)-I-pip), n = 6]
IC50 (mouse HDAC6; [3]): 12.2 µM
IC50 (human HDAC1; [10]): 6.36 µM
IC50 (human HDAC4; [4]): 7.02 µM

CC[C@H](C)[C@@H]1NC(=O)[C@@H](Cc2ccc(OC)cc2)NC(=O)[C@H](CCCCCC(=O)Oc2ccccc2N)NC(=O)[C@H]2CCCN2C1=O [OAPNH, cyclo(L-Asu(OAPNH)-D-Tyr(Me)-L-Ile-D-Pro)] (cyclo([Asu](X2)[dY](Me)I[dP]))
EC50 [2, 5]: 12.9 µM
IC50 (mouse HDAC6; [6]): 441 µM
IC50 (human HDAC1; [7]): 0.4 µM
IC50 (human HDAC4; [8]): 0.24 µM

CC[C@H](C)[C@@H]1NC(=O)[C@@H](Cc2ccc(OC)cc2)NC(=O)[C@H](CCCCS(=O)(=O)CC(=O)C(F)(F)F)NC(=O)[C@H]2CCCN2C1=O [Stfk]
EC50 [2, 9]: > 100 µM

CC[C@H](C)[C@@H]1NC(=O)[C@@H](Cc2ccc(OC)cc2)NC(=O)[C@H](CCCCCC(=O)Nc2ccccc2S)NC(=O)[C@H]2CCCN2C1=O [OATP, cyclo(L-Asu(OATP)-D-Tyr(Me)-L-Ile-D-Pro)] (cyclo([Asu](X3)[dY](Me)I[dP]))
EC50 [2, 5]: > 100 µM
IC50 (mouse HDAC6): 408 µM
IC50 (human HDAC1): 2.03 µM
IC50 (human HDAC4): 0.23 µM

Cyclo(-L-Asu(OBzl)-D-Tyr(Me)-L-Ile-D-Pro-) [COOBzI]
EC50 [2, 9]: > 100 µM
